# PubChem BioAssay (NCI)
#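 Cells were grown in 96-well plates and exposed to each compound for 48 hours at five concentrations; endpoints were interpolated linearly between bracketing concentrations, or set to the highest concentration if not reached. The concentration for 50% growth inhibition is given as GI50. TGI marks complete inhibition of growth.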
# Key:
# Experiment in all cases: NCI-60 cell line screen, 48 h
# U251 CNS = tested on: U251 CNS
# CAKI-1 renal = tested on: CAKI-1 renal
# NCI-H522 lung = tested on: NCI-H522 lung
# HL-60(TB) leukemia = tested on: HL-60(TB) leukemia
# SF-295 CNS = tested on: SF-295 CNS
# SK-MEL-28 melanoma = tested on: SK-MEL-28 melanoma
# EKVX NSCLC = tested on: EKVX NSCLC
# SNB-19 CNS = tested on: SNB-19 CNS
# PC-3 prostate = tested on: PC-3 prostate
# IGROV1 ovarian = tested on: IGROV1 ovarian
# HCT-15 colon = tested on: HCT-15 colon
# RPMI-8226 leukemia = tested on: RPMI-8226 leukemia
# HOP-92 NSCLC = tested on: HOP-92 NSCLC
# T-47D breast = tested on: T-47D breast
# CCRF-CEM leukemia = tested on: CCRF-CEM leukemia
# SK-OV-3 ovarian = tested on: SK-OV-3 ovarian
# HT29 colon = tested on: HT29 colon
# MCF7 breast = tested on: MCF7 breast
# SR leukemia = tested on: SR leukemia
# OVCAR-8 ovarian = tested on: OVCAR-8 ovarian
# DU-145 prostate = tested on: DU-145 prostate
# SF-539 CNS = tested on: SF-539 CNS
# HCC-2998 colon = tested on: HCC-2998 colon
# MOLT-4 leukemia = tested on: MOLT-4 leukemia
# SF-268 CNS = tested on: SF-268 CNS
# SNB-75 CNS = tested on: SNB-75 CNS
# COLO 205 colon = tested on: COLO 205 colon
# MDA-MB-435 = tested on: MDA-MB-435
# OVCAR-3 ovarian = tested on: OVCAR-3 ovarian
# M14 melanoma = tested on: M14 melanoma
# UACC-62 melanoma = tested on: UACC-62 melanoma
# RXF 393 renal = tested on: RXF 393 renal
# KM12 colon = tested on: KM12 colon
# A549 NSCLC = tested on: A549 NSCLC
# SW-620 colon = tested on: SW-620 colon
# NCI-H460 lung = tested on: NCI-H460 lung
# MALME-3M melanoma = tested on: MALME-3M melanoma
# UACC-257 melanoma = tested on: UACC-257 melanoma
# UO-31 renal = tested on: UO-31 renal
# HOP-62 NSCLC = tested on: HOP-62 NSCLC
# A498 renal = tested on: A498 renal
# 786-0 renal = tested on: 786-0 renal
# LOX IMVI melanoma = tested on: LOX IMVI melanoma
# TK-10 renal = tested on: TK-10 renal
# MDA-MB-231 breast = tested on: MDA-MB-231 breast
# OVCAR-4 ovarian = tested on: OVCAR-4 ovarian
# NCI-H23 lung = tested on: NCI-H23 lung
# SN12C renal = tested on: SN12C renal
# K-562 leukemia = tested on: K-562 leukemia
# SK-MEL-5 melanoma = tested on: SK-MEL-5 melanoma
# NCI/ADR-RES ovarian = tested on: NCI/ADR-RES ovarian
# ACHN renal = tested on: ACHN renal
# BT-549 breast = tested on: BT-549 breast
# HCT-116 colon = tested on: HCT-116 colon
# HS 578T breast = tested on: HS 578T breast
# OVCAR-5 ovarian = tested on: OVCAR-5 ovarian
# NCI-H226 lung = tested on: NCI-H226 lung
structure (smiles),measurement,setting,value
O=C(Nc1ncc([N+](=O)[O-])s1)c1cccc([N+](=O)[O-])c1,GI50,U251 CNS,3.54 µM
same,TGI,U251 CNS,> 100 µM
same,GI50,CAKI-1 renal,3.7 µM
same,TGI,CAKI-1 renal,22.7 µM
same,GI50,NCI-H522 lung,3.18 µM
same,TGI,NCI-H522 lung,65.9 µM
same,GI50,HL-60(TB) leukemia,2.35 µM
same,TGI,HL-60(TB) leukemia,8.27 µM
same,GI50,SF-295 CNS,2.71 µM
same,TGI,SF-295 CNS,35.1 µM
same,GI50,SK-MEL-28 melanoma,4.64 µM
same,TGI,SK-MEL-28 melanoma,> 55.5 µM
same,GI50,EKVX NSCLC,2.8 µM
same,TGI,EKVX NSCLC,> 100 µM
same,GI50,SNB-19 CNS,3.53 µM
same,TGI,SNB-19 CNS,> 100 µM
same,GI50,PC-3 prostate,2.99 µM
same,TGI,PC-3 prostate,> 100 µM
same,GI50,IGROV1 ovarian,3.98 µM
same,TGI,IGROV1 ovarian,> 56.3 µM
same,GI50,HCT-15 colon,6.11 µM
same,TGI,HCT-15 colon,> 100 µM
same,GI50,RPMI-8226 leukemia,1.43 µM
same,TGI,RPMI-8226 leukemia,5.41 µM
same,GI50,HOP-92 NSCLC,1.99 µM
same,TGI,HOP-92 NSCLC,6.86 µM
same,GI50,T-47D breast,2.02 µM
same,TGI,T-47D breast,12.9 µM
same,GI50,CCRF-CEM leukemia,2.39 µM
same,TGI,CCRF-CEM leukemia,> 29.2 µM
same,GI50,SK-OV-3 ovarian,3.72 µM
same,TGI,SK-OV-3 ovarian,35.7 µM
same,GI50,HT29 colon,4.43 µM
same,TGI,HT29 colon,97.2 µM
same,GI50,MCF7 breast,3.02 µM
same,TGI,MCF7 breast,> 88.2 µM
same,GI50,SR leukemia,2.36 µM
same,TGI,SR leukemia,9.01 µM
same,GI50,OVCAR-8 ovarian,3.2 µM
same,TGI,OVCAR-8 ovarian,20.3 µM
same,GI50,DU-145 prostate,9.89 µM
same,TGI,DU-145 prostate,> 100 µM
same,GI50,SF-539 CNS,3.23 µM
same,TGI,SF-539 CNS,37.1 µM
same,GI50,HCC-2998 colon,3.2 µM
same,TGI,HCC-2998 colon,> 100 µM
same,GI50,MOLT-4 leukemia,3.04 µM
same,TGI,MOLT-4 leukemia,> 34.1 µM
same,GI50,SF-268 CNS,8.25 µM
same,TGI,SF-268 CNS,> 100 µM
same,GI50,SNB-75 CNS,10.7 µM
same,TGI,SNB-75 CNS,88 µM
same,GI50,COLO 205 colon,4 µM
same,TGI,COLO 205 colon,24.7 µM
same,GI50,MDA-MB-435,3.16 µM
same,TGI,MDA-MB-435,20.9 µM
same,GI50,OVCAR-3 ovarian,3.18 µM
same,TGI,OVCAR-3 ovarian,> 100 µM
same,GI50,M14 melanoma,3.85 µM
same,TGI,M14 melanoma,24.1 µM
same,GI50,UACC-62 melanoma,2.38 µM
same,TGI,UACC-62 melanoma,> 32.7 µM
same,GI50,RXF 393 renal,2.44 µM
same,TGI,RXF 393 renal,6.91 µM
same,GI50,KM12 colon,4.61 µM
same,TGI,KM12 colon,65.6 µM
same,GI50,A549 NSCLC,4.24 µM
same,TGI,A549 NSCLC,42.5 µM
same,GI50,SW-620 colon,6.04 µM
same,TGI,SW-620 colon,> 100 µM
same,GI50,NCI-H460 lung,2.8 µM
same,TGI,NCI-H460 lung,> 100 µM
same,GI50,MALME-3M melanoma,2.79 µM
same,TGI,MALME-3M melanoma,8.5 µM
same,GI50,UACC-257 melanoma,3.19 µM
same,TGI,UACC-257 melanoma,13.8 µM
same,GI50,UO-31 renal,2.55 µM
same,TGI,UO-31 renal,9.87 µM
same,GI50,HOP-62 NSCLC,3.75 µM
same,TGI,HOP-62 NSCLC,> 40.9 µM
same,GI50,A498 renal,2.1 µM
same,TGI,A498 renal,24.5 µM
same,GI50,786-0 renal,2.57 µM
same,TGI,786-0 renal,> 92 µM
same,GI50,LOX IMVI melanoma,3.66 µM
same,TGI,LOX IMVI melanoma,> 100 µM
same,GI50,TK-10 renal,4.59 µM
same,TGI,TK-10 renal,37.3 µM
same,GI50,MDA-MB-231 breast,5.12 µM
same,TGI,MDA-MB-231 breast,54.5 µM
same,GI50,OVCAR-4 ovarian,3.97 µM
same,TGI,OVCAR-4 ovarian,> 100 µM
same,GI50,NCI-H23 lung,2.87 µM
same,TGI,NCI-H23 lung,> 78.2 µM
same,GI50,SN12C renal,2.73 µM
same,TGI,SN12C renal,> 53.3 µM
same,GI50,K-562 leukemia,2.49 µM
same,TGI,K-562 leukemia,> 40 µM
same,GI50,SK-MEL-5 melanoma,2.75 µM
same,TGI,SK-MEL-5 melanoma,11.5 µM
same,GI50,NCI/ADR-RES ovarian,3.32 µM
same,TGI,NCI/ADR-RES ovarian,> 100 µM
same,GI50,ACHN renal,5.41 µM
same,TGI,ACHN renal,> 68.1 µM
same,GI50,BT-549 breast,2.78 µM
same,TGI,BT-549 breast,11 µM
same,GI50,HCT-116 colon,2.72 µM
same,TGI,HCT-116 colon,16.5 µM
same,GI50,HS 578T breast,1.72 µM
same,TGI,HS 578T breast,> 28.4 µM
same,GI50,OVCAR-5 ovarian,12.4 µM
same,TGI,OVCAR-5 ovarian,> 100 µM
same,GI50,NCI-H226 lung,4.1 µM
same,TGI,NCI-H226 lung,> 60.1 µM
